In ChEMBL document CHEMBL1201862, “PubChem BioAssay data set” (2004):
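Interpolation was linear, between the two tested concentrations surrounding the appropriate level; five concentrations were tested over 48 hours in 96-well plates. Here, GI50 denotes the concentration required for 50% inhibition of growth.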 The source made the active and inactive calls. No stated cut-off is given here; in the data, active = GI50 up to about 1.1 µM and inactive = higher.

Key:
Assay in all cases: DTP human tumour cell line panel, 48 h
U-251 = test system: U-251
MOLT-4 = test system: MOLT-4
NCI-H23 = test system: NCI-H23
SK-MEL-28 = test system: SK-MEL-28
MDA-N = test system: MDA-N
EKVX = test system: EKVX
HL-60 = test system: HL-60
786-0 = test system: 786-0
CCRF-CEM = test system: CCRF-CEM
LOX IMVI = test system: LOX IMVI
OVCAR-5 = test system: OVCAR-5
SF-539 = test system: SF-539
RXF 393 = test system: RXF 393
MDA-MB-435 = test system: MDA-MB-435
MCF7 = test system: MCF7
SK-OV-3 = test system: SK-OV-3
MDA-MB-231 = test system: MDA-MB-231
SW-620 = test system: SW-620
UACC-62 = test system: UACC-62

Measured: GI50

O=C(c1ccccc1)c1ccc2[nH]c(-c3c(Cl)c(Cl)c(Cl)c(Cl)c3C(=O)N/N=C/c3ccccc3)nc2c1
inactive: U-251 35.8 µM | MOLT-4 11.2 µM | NCI-H23 23 µM | SK-MEL-28 24 µM | MDA-N 16.3 µM | EKVX 18.4 µM | HL-60 18.6 µM | 786-0 26.1 µM | CCRF-CEM 12.3 µM | LOX IMVI 26.4 µM | OVCAR-5 36.9 µM | SF-539 25.1 µM | RXF 393 14.4 µM | MDA-MB-435 9.25 µM | MCF7 13.6 µM | SK-OV-3 35.7 µM | MDA-MB-231 19.2 µM | SW-620 37.2 µM

CCCCc1ccc(Nc2nc3c(ncn3C3CC(O)C(CN=[N+]=[N-])O3)c(=O)[nH]2)cc1 (stereo not drawn)
inactive: U-251 > 100 µM | MOLT-4 > 100 µM | NCI-H23 > 100 µM | SK-MEL-28 > 100 µM | MDA-N > 100 µM | EKVX > 100 µM | HL-60 > 100 µM | 786-0 > 100 µM | UACC-62 > 100 µM | CCRF-CEM > 100 µM | LOX IMVI > 100 µM | OVCAR-5 > 100 µM | RXF 393 > 100 µM | MDA-MB-435 > 100 µM | MCF7 > 100 µM | SK-OV-3 > 100 µM | MDA-MB-231 > 100 µM | SW-620 > 100 µM

CCOC(=O)c1nc2ccc(C(F)(F)F)cc2nc1NCc1ccc(OC)c(OC)c1
inactive: U-251 41.8 µM | MOLT-4 34.9 µM | NCI-H23 72.8 µM | MDA-N 51.3 µM | EKVX 44.8 µM | HL-60 22.8 µM | 786-0 > 100 µM | UACC-62 73.6 µM | CCRF-CEM 65.6 µM | LOX IMVI 36.1 µM | OVCAR-5 > 100 µM | SF-539 > 100 µM | RXF 393 43.6 µM | MDA-MB-435 50.1 µM | MCF7 37.7 µM | SK-OV-3 > 100 µM | MDA-MB-231 > 100 µM | SW-620 49.7 µM

CC(C)(C)c1ccc(-c2nc3ccc([N+](=O)[O-])cc3c(=O)o2)cc1
inactive: U-251 15 µM | MOLT-4 18.7 µM | NCI-H23 28.7 µM | SK-MEL-28 34.4 µM | MDA-N 31.6 µM | EKVX 25.4 µM | HL-60 25.5 µM | 786-0 26.8 µM | UACC-62 24.5 µM | CCRF-CEM 20.1 µM | LOX IMVI 15.3 µM | OVCAR-5 32.8 µM | SF-539 17.1 µM | RXF 393 42.6 µM | MDA-MB-435 25.1 µM | MCF7 34.1 µM | SK-OV-3 31.5 µM | MDA-MB-231 27.5 µM | SW-620 31 µM
